System: MV-4-11 cells
Test: Gene expression microarray analysis (Affymetrix PrimeView) and GSEA
Type: cell-based, human
Design: RFU PODN (11730768_x_at) / Fold change /veh PODN (11730768_x_at) / RFU LINC00158 (11744669_a_at) / Fold change /veh LINC00158 (11744669_a_at) / RFU DUSP10 (11751237_a_at) / Fold change /veh DUSP10 (11751237_a_at) / RFU ID3 (11757404_x_at) / Fold change /veh ID3 (11757404_x_at) / RFU PLEKHG5 (11737974_s_at) / Fold change /veh PLEKHG5 (11737974_s_at) / RFU LRRC4B (11730491_at) / Fold change /veh LRRC4B (11730491_at) / RFU GIMAP4 (11747438_a_at) / Fold change /veh GIMAP4 (11747438_a_at) / RFU KRT8 (11758183_x_at) / Fold change /veh KRT8 (11758183_x_at) / RFU CNN1 (11734310_a_at) / Fold change /veh CNN1 (11734310_a_at) / RFU VPS37D (11726825_at) / Fold change /veh VPS37D (11726825_at) / RFU C10orf10 (11716522_x_at) / Fold change /veh C10orf10 (11716522_x_at) / RFU KIR2DL2 /// KIR2DL4 /// KIR2DL5A /// KIR2DL5B /// KIR2DS1 /// KIR2DS2 /// KIR2DS3 /// KIR2DS4 /// KIR3DL3 /// KIR3DL3 /// KIR3DS1 (11738374_at) / Fold change /veh KIR2DL2 /// KIR2DL4 /// KIR2DL5A /// KIR2DL5B /// KIR2DS1 /// KIR2DS2 /// KIR2DS3 /// KIR2DS4 /// KIR3DL3 /// KIR3DL3 /// KIR3DS1 (11738374_at) / RFU C1QL1 (11718748_at) / Fold change /veh C1QL1 (11718748_at) / RFU TMPRSS4 (11747572_a_at) / Fold change /veh TMPRSS4 (11747572_a_at) / RFU HAMP (11756126_x_at) / Fold change /veh HAMP (11756126_x_at) / RFU RNFT2 (11725882_a_at) / Fold change /veh RNFT2 (11725882_a_at) / RFU NR4A2 (11747474_a_at) / Fold change /veh NR4A2 (11747474_a_at) / RFU ABCC12 (11746883_a_at) / Fold change /veh ABCC12 (11746883_a_at) / RFU TMEM136 (11760407_x_at) / Fold change /veh TMEM136 (11760407_x_at) / RFU CLDN22 /// WWC2 (11732394_at) / Fold change /veh CLDN22 /// WWC2 (11732394_at) / RFU HLA-DPB1 (11760878_x_at) / Fold change /veh HLA-DPB1 (11760878_x_at) / RFU SPINT1 (11716480_a_at) / Fold change /veh SPINT1 (11716480_a_at) / RFU GAP43 (11754022_s_at) / Fold change /veh GAP43 (11754022_s_at) / RFU A4GNT (11735810_at) / Fold change /veh A4GNT (11735810_at) / RFU PRB3 (11715151_x_at) / Fold change /veh PRB3 (11715151_x_at) / RFU TUBB4B (11761932_at) / Fold change /veh TUBB4B (11761932_at) / RFU CAPN14 (11732068_a_at) / Fold change /veh CAPN14 (11732068_a_at) / RFU TMCC2 (11721928_a_at) / Fold change /veh TMCC2 (11721928_a_at) / RFU IRGQ (11745062_a_at) / Fold change /veh IRGQ (11745062_a_at) / RFU FAM174B (11720279_a_at) / Fold change /veh FAM174B (11720279_a_at) / RFU TMPRSS4 (11748680_a_at) / Fold change /veh TMPRSS4 (11748680_a_at) / RFU FAM212B (11763350_a_at) / Fold change /veh FAM212B (11763350_a_at) / RFU PLEKHG5 (11743358_a_at) / Fold change /veh PLEKHG5 (11743358_a_at) / RFU ZSCAN30 (11745921_a_at) / Fold change /veh ZSCAN30 (11745921_a_at) / RFU CMKLR1 (11741424_a_at) / Fold change /veh CMKLR1 (11741424_a_at) / RFU LOC101060620 /// MAPK8IP1 (11723275_at) / Fold change /veh LOC101060620 /// MAPK8IP1 (11723275_at) / RFU SPTSSB (11747773_x_at) / Fold change /veh SPTSSB (11747773_x_at) / RFU PRSS12 (11739890_at) / Fold change /veh PRSS12 (11739890_at) / RFU BIN1 (11741810_x_at) / Fold change /veh BIN1 (11741810_x_at) / RFU WNT11 (11732464_a_at) / Fold change /veh WNT11 (11732464_a_at) / RFU C10orf10 (11716521_a_at) / Fold change /veh C10orf10 (11716521_a_at) / RFU C5orf56 (11738089_at) / Fold change /veh C5orf56 (11738089_at) / RFU CYB561 (11721691_x_at) / Fold change /veh CYB561 (11721691_x_at) / RFU ANKRD19P (11752326_a_at) / Fold change /veh ANKRD19P (11752326_a_at) / RFU OR2T12 /// OR2T33 /// OR2T8 (11738714_s_at) / Fold change /veh OR2T12 /// OR2T33 /// OR2T8 (11738714_s_at) / RFU VCAN (11748164_a_at) / Fold change /veh VCAN (11748164_a_at) / RFU JSRP1 (11732532_at) / Fold change /veh JSRP1 (11732532_at) / RFU KRTAP10-11 (11738290_x_at) / Fold change /veh KRTAP10-11 (11738290_x_at) / RFU MYO3A (11730013_a_at) / Fold change /veh MYO3A (11730013_a_at) / RFU EBF3 (11725865_a_at) / Fold change /veh EBF3 (11725865_a_at) / RFU CAMK2N1 (11719241_x_at) / Fold change /veh CAMK2N1 (11719241_x_at) / RFU C5orf56 (11738088_a_at) / Fold change /veh C5orf56 (11738088_a_at) / RFU OLFML3 (11715873_a_at) / Fold change /veh OLFML3 (11715873_a_at) / RFU LOC100653217 /// NTM (11731650_a_at) / Fold change /veh LOC100653217 /// NTM (11731650_a_at) / RFU MAPK11 (11762145_a_at) / Fold change /veh MAPK11 (11762145_a_at) / RFU FIZ1 (11724087_x_at) / Fold change /veh FIZ1 (11724087_x_at) / RFU OASL (11726364_x_at) / Fold change /veh OASL (11726364_x_at) / RFU SOX15 (11748057_x_at) / Fold change /veh SOX15 (11748057_x_at) / RFU CD79A (11719716_a_at) / Fold change /veh CD79A (11719716_a_at) / RFU HIST1H1D (11736915_at) / Fold change /veh HIST1H1D (11736915_at) / RFU CASKIN2 (11723855_a_at) / Fold change /veh CASKIN2 (11723855_a_at) / RFU LOC730098 (11760151_x_at) / Fold change /veh LOC730098 (11760151_x_at) / RFU OR4N2 (11742367_at) / Fold change /veh OR4N2 (11742367_at) / RFU PRRT2 (11749266_a_at) / Fold change /veh PRRT2 (11749266_a_at) / RFU SNX32 (11753110_a_at) / Fold change /veh SNX32 (11753110_a_at) / RFU CDHR5 (11726645_a_at) / Fold change /veh CDHR5 (11726645_a_at) / RFU RCAN1 (11760418_a_at) / Fold change /veh RCAN1 (11760418_a_at) / RFU FAM167A (11723789_a_at) / Fold change /veh FAM167A (11723789_a_at) / RFU FAM26E (11764081_at) / Fold change /veh FAM26E (11764081_at) / RFU ISYNA1 (11749810_s_at) / Fold change /veh ISYNA1 (11749810_s_at) / RFU ACY1 (11761880_at) / Fold change /veh ACY1 (11761880_at) / RFU 11764098_at / Fold change /veh 11764098_at / RFU SAMD14 (11745864_x_at) / Fold change /veh SAMD14 (11745864_x_at) / RFU NPB (11741838_a_at) / Fold change /veh NPB (11741838_a_at) / RFU TMPRSS6 (11731388_a_at) / Fold change /veh TMPRSS6 (11731388_a_at) / RFU KRTAP10-2 (11738614_at) / Fold change /veh KRTAP10-2 (11738614_at) / RFU ARHGAP8 /// PRR5-ARHGAP8 (11727945_x_at) / Fold change /veh ARHGAP8 /// PRR5-ARHGAP8 (11727945_x_at) / RFU KRTAP5-7 /// NADSYN1 (11734609_at) / Fold change /veh KRTAP5-7 /// NADSYN1 (11734609_at) / RFU RASL12 (11751679_a_at) / Fold change /veh RASL12 (11751679_a_at) / RFU CDKN2B (11736163_a_at) / Fold change /veh CDKN2B (11736163_a_at) / RFU PRF1 (11729649_at) / Fold change /veh PRF1 (11729649_at) / RFU, ZNF638 /// ZNF638-IT1 / Fold change vs veh, ZNF638 /// ZNF638-IT1 / RFU, PANK3 / Fold change vs veh, PANK3 / RFU, SH3YL1 / Fold change vs veh, SH3YL1 / RFU, ZEB2 / Fold change vs veh, ZEB2 / RFU, NRIP1 / Fold change vs veh, NRIP1 / RFU, PTTG1IP / Fold change vs veh, PTTG1IP / RFU, CAPN2 / Fold change vs veh, CAPN2 / RFU, MED14 / Fold change vs veh, MED14 / RFU, SNORA58 / Fold change vs veh, SNORA58 / RFU, C1orf63 / Fold change vs veh, C1orf63 / RFU, LRRFIP1 / Fold change vs veh, LRRFIP1 / RFU, NDUFAF7 / Fold change vs veh, NDUFAF7 / RFU, SLC12A2 / Fold change vs veh, SLC12A2 / RFU, IBTK / Fold change vs veh, IBTK / RFU, ESF1 / Fold change vs veh, ESF1 / Fold change vs veh, TMEM50B / RFU, TAOK1 / Fold change vs veh, TAOK1 / RFU, ACBD3 / Fold change vs veh, ACBD3 / RFU, TMA16 / Fold change vs veh, TMA16 / RFU, RWDD3 / Fold change vs veh, RWDD3 / RFU, BCAT1 / Fold change vs veh, BCAT1 / RFU, EDEM3 / Fold change vs veh, EDEM3 / RFU, TMEM33 / Fold change vs veh, TMEM33 / RFU, WDR75 / Fold change vs veh, WDR75 / RFU, AHCTF1 / Fold change vs veh, AHCTF1 / RFU, TFRC / Fold change vs veh, TFRC / RFU, ZDHHC17 / Fold change vs veh, ZDHHC17 / RFU, NOM1 / Fold change vs veh, NOM1 / RFU, ARL8B / Fold change vs veh, ARL8B / RFU, ZBTB11 / Fold change vs veh, ZBTB11 / RFU, TAMM41 / Fold change vs veh, TAMM41 / RFU, KIAA1704 /// LOC100996395 / Fold change vs veh, KIAA1704 /// LOC100996395 / RFU, ING1 / Fold change vs veh, ING1 / RFU, TRMT61B / Fold change vs veh, TRMT61B / RFU, FUBP3 / Fold change vs veh, FUBP3 / RFU, TP53 / Fold change vs veh, TP53 / RFU, TNKS2 / Fold change vs veh, TNKS2 / RFU, ZFP14 / Fold change vs veh, ZFP14 / RFU, ACTR2 / Fold change vs veh, ACTR2 / RFU, PPP3R1 / Fold change vs veh, PPP3R1 / RFU, PIK3R1 / Fold change vs veh, PIK3R1 / RFU, HNRNPA1 / Fold change vs veh, HNRNPA1 / RFU, RNF170 / Fold change vs veh, RNF170 / RFU, ZNF28 / Fold change vs veh, ZNF28 / RFU, RNGTT / Fold change vs veh, RNGTT / RFU, OGT / Fold change vs veh, OGT / RFU, BRD1 / Fold change vs veh, BRD1 / RFU, MARS / Fold change vs veh, MARS / RFU, ZNF655 / Fold change vs veh, ZNF655 / RFU, FAHD1 / Fold change vs veh, FAHD1 / RFU, BDP1 / Fold change vs veh, BDP1 / RFU, LRRCC1 / Fold change vs veh, LRRCC1 / RFU, ARID1A / Fold change vs veh, ARID1A / RFU, ZNF146 / Fold change vs veh, ZNF146 / RFU, ZNF330 / Fold change vs veh, ZNF330 / RFU, GPN3 / Fold change vs veh, GPN3 / RFU, C9orf123 / Fold change vs veh, C9orf123 / RFU, N4BP2L2 / Fold change vs veh, N4BP2L2 / RFU, ARFIP1 / Fold change vs veh, ARFIP1 / RFU, FAM179B / Fold change vs veh, FAM179B / RFU, BCL10 / Fold change vs veh, BCL10 / RFU, UHRF1BP1L / Fold change vs veh, UHRF1BP1L / RFU, BET1 / Fold change vs veh, BET1 / RFU, CNOT2 / Fold change vs veh, CNOT2 / RFU, ZNF268 / Fold change vs veh, ZNF268 / Fold change vs veh, ZNF507 / RFU, DGCR2 / Fold change vs veh, DGCR2 / RFU, WDSUB1 / Fold change vs veh, WDSUB1 / Fold change vs veh, HSP90B1 /// MIR3652 / RFU, ADSS / Fold change vs veh, ADSS / RFU, GK / Fold change vs veh, GK / RFU, ZNF148 / Fold change vs veh, ZNF148 / RFU, TAF9 / Fold change vs veh, TAF9 / RFU, SLC1A5 / Fold change vs veh, SLC1A5 / RFU, SLMO2 / Fold change vs veh, SLMO2 / RFU, ABCC4 / Fold change vs veh, ABCC4 / RFU, LOC101060439 /// RAP1B / Fold change vs veh, LOC101060439 /// RAP1B / RFU, RFX7 / Fold change vs veh, RFX7 / RFU, GTPBP10 / Fold change vs veh, GTPBP10 / RFU, CNEP1R1 / Fold change vs veh, CNEP1R1 / RFU, BIVM-ERCC5 /// ERCC5 / Fold change vs veh, BIVM-ERCC5 /// ERCC5 / RFU, ILF3 / Fold change vs veh, ILF3 / RFU 11762660_at / Fold change /veh 11762660_at / RFU VCAN (11757783_s_at) / Fold change /veh VCAN (11757783_s_at) / RFU DDX43 (11728927_at) / Fold change /veh DDX43 (11728927_at) / RFU KRT8 (11758188_x_at) / Fold change /veh KRT8 (11758188_x_at) / RFU NKD1 (11759106_at) / Fold change /veh NKD1 (11759106_at) / RFU SRD5A1 (11742802_a_at) / Fold change /veh SRD5A1 (11742802_a_at) / RFU TPSAB1 /// TPSB2 (11721975_s_at) / Fold change /veh TPSAB1 /// TPSB2 (11721975_s_at) / RFU GSTM3 (11746129_a_at) / Fold change /veh GSTM3 (11746129_a_at) / RFU IL23R (11737362_x_at) / Fold change /veh IL23R (11737362_x_at) / RFU TMEM51 (11727254_a_at) / Fold change /veh TMEM51 (11727254_a_at) / RFU PIWIL2 (11732686_x_at) / Fold change /veh PIWIL2 (11732686_x_at) / RFU ORM1 (11744905_x_at) / Fold change /veh ORM1 (11744905_x_at) / RFU CCDC152 (11743942_at) / Fold change /veh CCDC152 (11743942_at) / RFU ECM1 (11717891_a_at) / Fold change /veh ECM1 (11717891_a_at) / RFU IL23R (11748794_a_at) / Fold change /veh IL23R (11748794_a_at) / RFU TNFAIP8L3 (11732012_x_at) / Fold change /veh TNFAIP8L3 (11732012_x_at) / RFU MBOAT4 (11741988_at) / Fold change /veh MBOAT4 (11741988_at) / RFU 11764193_at / Fold change /veh 11764193_at / RFU TMEM53 (11763286_at) / Fold change /veh TMEM53 (11763286_at) / RFU MAGEB2 (11727129_at) / Fold change /veh MAGEB2 (11727129_at) / RFU TMEM200A (11744735_a_at) / Fold change /veh TMEM200A (11744735_a_at) / RFU CCDC152 (11751479_a_at) / Fold change /veh CCDC152 (11751479_a_at) / RFU FAM211A (11726209_a_at) / Fold change /veh FAM211A (11726209_a_at) / RFU RGS16 (11746705_a_at) / Fold change /veh RGS16 (11746705_a_at) / RFU VCAN (11755009_s_at) / Fold change /veh VCAN (11755009_s_at) / RFU RHOB (11743442_s_at) / Fold change /veh RHOB (11743442_s_at) / RFU RGS16 (11720943_a_at) / Fold change /veh RGS16 (11720943_a_at) / RFU RGS16 (11720944_at) / Fold change /veh RGS16 (11720944_at) / RFU, VPS4B / Fold change vs veh, VPS4B / RFU, CREB1 / Fold change vs veh, CREB1 / RFU, DNAJC13 / Fold change vs veh, DNAJC13 / RFU, GNAQ / Fold change vs veh, GNAQ / RFU, CDK5R1 / Fold change vs veh, CDK5R1 / RFU, ZRANB3 / Fold change vs veh, ZRANB3 / RFU, CUL4A / Fold change vs veh, CUL4A / RFU, CCNY / Fold change vs veh, CCNY / RFU, UFL1 / Fold change vs veh, UFL1 / RFU, COG3 / Fold change vs veh, COG3 / RFU, DIAPH2 / Fold change vs veh, DIAPH2 / RFU, SKA2 / Fold change vs veh, SKA2 / RFU, AFF3 / Fold change vs veh, AFF3 / RFU, LMF1 / Fold change vs veh, LMF1 / RFU, IPO11 / Fold change vs veh, IPO11 / RFU, DFFB / Fold change vs veh, DFFB / RFU, FOXP1 / Fold change vs veh, FOXP1 / RFU, CARD8 / Fold change vs veh, CARD8 / RFU, STRN3 / Fold change vs veh, STRN3 / RFU, ADK / Fold change vs veh, ADK / RFU, RASSF2 / Fold change vs veh, RASSF2 / RFU, WIPF1 / Fold change vs veh, WIPF1 / RFU, LARP1B / Fold change vs veh, LARP1B / RFU, RASA1 / Fold change vs veh, RASA1 / RFU, RB1 / Fold change vs veh, RB1 / RFU, PPFIA1 / Fold change vs veh, PPFIA1 / RFU, MAT2A / Fold change vs veh, MAT2A / RFU, CCT5 / Fold change vs veh, CCT5 / RFU, WDR92 / Fold change vs veh, WDR92 / RFU, CUX1 / Fold change vs veh, CUX1 / RFU, TTC7A / Fold change vs veh, TTC7A / RFU, TMEM135 / Fold change vs veh, TMEM135 / RFU, DEPTOR / Fold change vs veh, DEPTOR / RFU, CPM / Fold change vs veh, CPM / RFU, DNAJB6 / Fold change vs veh, DNAJB6 / RFU, CACNA2D3 / Fold change vs veh, CACNA2D3 / RFU, DTX4 / Fold change vs veh, DTX4 / RFU, TFCP2 / Fold change vs veh, TFCP2 / RFU, GMCL1 /// GMCL1P1 / Fold change vs veh, GMCL1 /// GMCL1P1 / RFU, AEBP2 / Fold change vs veh, AEBP2 / RFU, SNHG1 /// SNORD22 /// SNORD25 /// SNORD26 /// SNORD27 /// SNORD28 /// SNORD29 /// SNORD31 / Fold change vs veh, SNHG1 /// SNORD22 /// SNORD25 /// SNORD26 /// SNORD27 /// SNORD28 /// SNORD29 /// SNORD31 / Fold change (Aza/veh), C12orf56 (ProbeSet 11735607_a_at) / Fold change (ACY-1035/veh), C12orf56 (ProbeSet 11735607_a_at) / Fold change (Aza/veh), FGFR1OP (ProbeSet 11751329_s_at) / Fold change (ACY-1035/veh), FGFR1OP (ProbeSet 11751329_s_at) / Fold change (Aza/veh), VPS36 (ProbeSet 11739960_a_at) / Fold change (ACY-1035/veh), VPS36 (ProbeSet 11739960_a_at) / RFU SYPL1 (11715823_x_at) / Fold change /veh SYPL1 (11715823_x_at) / RFU IGFBP7 (11715501_s_at) / Fold change /veh IGFBP7 (11715501_s_at) / RFU REEP3 (11722064_at) / Fold change /veh REEP3 (11722064_at) / RFU IGLL1 (11728026_x_at) / Fold change /veh IGLL1 (11728026_x_at): dose or concentration left out as unconfirmed
Conditions: MV-4-11 cells, 48 hours

Nc1ccc(-c2cccs2)cc1NC(=O)c1ccc2c(c1)cc(C1CC1)n2CCN1CCOCC1 [ACY-1035]
Fold change /veh VCAN (11755009_s_at): 1.16
